Assay [1] relates to insomnia, anxiety or agitation. Kind of assay: Single-patient therapy Examples 1-10 (insomnia, anxiety, agitation). It is filed as in vivo, human. As to the method: A person presents as suffering from maintenance insomnia for one year. They are started on oral A2-73 at 10 mg/day. […] They are currently maintained on 10 mg of A2-73 and is sleeping well. A person presents with anxiety of three years' duration. They are administered A2-73 at 20 mg oral per day every other day. […] They are maintained on this dosing schedule for 60 days. […] They are treated with 30 mg A2-73 oral daily for 30 days. […] They are currently maintained at that dosage and is not anxious. A person presents with MCI and reports maintenance insomnia for one year. They are started on oral A1-41 at 10 mg/day. […] They are currently maintained on 10 mg of A1-41 and is sleeping well. The patient is a person with diagnosed AD and reported anxiety of three years' duration. They are administered A19-144 at 20 mg oral per day every day for 90 days. […] They are chronically maintained on this dosing schedule. A person diagnosed with mild cognitive impairment presents as suffering from maintenance insomnia for one year. They are started on oral A2-73 at 50 mg/day. […] They are currently maintained on 50 mg of A2-73 daily and is sleeping well. A person diagnosed with Alzheimer's disease presents with insomnia/WASO and agitation and a systolic blood pressure of 145 mm Hg. They are started on oral A2-73 at 30 mg/day. […] They are also less agitated. Their results on all cognitive tests and HAM-D improve. They are currently maintained on 30 mg of A2-73 daily. A person diagnosed with Alzheimer's disease presents with insomnia/WASO and agitation. They are started on oral A2-73 at 100 mg/day. […] They are also less agitated. Their results on all cognitive tests and HAM-D improve. They are currently maintained on 100 mg of A2-73 every other day. A person diagnosed with Alzheimer's disease presents with insomnia/WASO and agitation. They are started on oral A19-144 at 50 mg/day. […] They are also less agitated. Their results on all cognitive tests and HAM-D improve. They are currently maintained on 50 mg of A19-144 daily. A person diagnosed with Alzheimer's disease presents with insomnia/WASO and agitation. They are started on oral A1-41 at 30 mg/day. […] They are also less agitated. Their results on all cognitive tests and HAM-D improve. They are currently maintained on 30 mg of A1-41 daily.

Assay [2] has as its system mild-to-moderate Alzheimer's disease patients. Kind of assay: EEG/ERP (P300) target detection task, Phase 2a study. It is filed as in vivo, human. As to conditions: for False Alarms / P300 Amplitude / Task Accuracy / Reaction Time: mean ± SEM; for False Alarms: baseline 3.4 ± 1.0, healthy control 1.1 ± 0.2; for P300 Amplitude: baseline 5.99 ± 0.58, healthy control 7.36 ± 0.39; for Task Accuracy: baseline 83.8 ± 3.8, healthy control 94.1 ± 1.1; for Reaction Time: baseline 559.0 ± 24.0, healthy control 458.6 ± 11.4. As to the method: An event-related potential (ERP) is the measured brain response that is the direct result of a specific sensory, cognitive, or motor event. More formally, it is any stereotyped electrophysiological response to a stimulus. The study of the brain in this way provides a noninvasive means of evaluating brain functioning. ERPs are measured by means of electroencephalography (EEG). Particular efficacy data measurements addressed cognition and function. Cognitive measures include MMSE and Cogstate battery. Functional measures were ADCS-ADL. Supportive Biomarker Measurements include ERP (P300): fundamental measures of synaptic network performance and target engagement. ERP target detection task measures is a direct measure of attention, speed of brain processing, and simple functional performance. 2-73 Rescues Cognitive Effects on a Cellular Level on the subjects of the Phase 2a study. […] 2-73 effect on synaptic networks and effect on cognition and behavior at daily doses of 10 mg-50 mg is shown. ERP peak measures (P300) are shown. The P300 (P3) wave is an event related potential (ERP) component elicited in the process of decision making. It is considered to be an endogenous potential, as its occurrence links not to the physical attributes of a stimulus, but to a person's reaction to it. More specifically, the P300 is thought to reflect processes involved in stimulus evaluation or categorization. ERP target detection task is a direct measure of attention, speed of brain. processing, and simple behavioral performance. Psychometric measures (Cogstate) cognitive measures: Detection: processing speed (psychomotor function), Identification: reaction time (attention), One Back: working memory (cognition), One Card Learning: visual learning (visual memory), ISLT: verbal learning, ISLT-delay: verbal memory. Psychometric measures (MMSE): cognitive measures. Behavioral measures (ADCS-ADL): behavioral measures.

The mark [3] stands for this setting: Example 7: oral 30 mg/day, 30 days.
Setting [4] is: Example 8: oral 100 mg/day, 30 days.

For `CN(C)CC1CCOC1(c1ccccc1)c1ccccc1.Cl` (stereo not drawn) [A2-73, tetrahydro-N,N-dimethyl-2,2-diphenyl-3-furanmethanamine hydrochloride], the “Sleep at follow up (maintenance insomnia)” value in assay [1] (Example 1: person, oral 10 mg/day, 30 days) is given as “sleeping well”; in assay [1] (Example 6: person with MCI, oral 50 mg/day, 30 days) it was “sleeping well”. In addition, the Anxiety result in assay [1] (Example 2: person, 20 mg oral every other day, after two days of dosing) is “Resolution of the anxiety”. Besides, the “Clinical evaluation of agitation” value in assay [1] (Example 3: person, 30 mg oral daily for 30 days) is “normal affect without agitation”. In addition, the “Agitation at follow up” value in assay [1] (setting [3]) and in assay [1] (setting [4]) was “less agitated” each time. Also, the “Results on all cognitive tests and HAM-D” value in assay [1] (setting [3]) and in assay [1] (setting [4]) was “improve” throughout. Besides, in assay [1] (Example 7: oral 30 mg/day, 30 days, 145 mm Hg at presentation), the “Systolic BP at follow up” value is 129 mm Hg. Also, the “Sleep at follow up (insomnia/WASO)” value in assay [1] (Example 7: person with AD, oral 30 mg/day, 30 days) is given as “sleeping well through the night”; in assay [1] (Example 8: person with AD, oral 100 mg/day, 30 days), “sleeping well through the night”. For the same molecule, the “False Alarms” value in assay [2] (5 Week) is 1.0 ± 0.5%; in assay [2] (17 Week), 1.2 ± 0.9%; in assay [2] (31 Week), 2.6 ± 1.2%. Also, the “P300 Amplitude” value in assay [2] (5 Week, daily 10 mg-50 mg) was found to be 7.09 ± 0.72 μV; in assay [2] (17 Week), 6.38 ± 0.61 μV; in assay [2] (31 Week), 5.93 ± 0.77 μV. Besides, the “Task Accuracy” value in assay [2] (5 Week) is 92.6 ± 2.4%; in assay [2] (17 Week), 92.2 ± 3.9%; in assay [2] (31 Week) it was 88.1 ± 4.4%. For the same molecule, the “Reaction Time” value in assay [2] (5 Week) came out at 492.6 ± 23.8 ms; in assay [2] (17 Week), 498.8 ± 24.8 ms; in assay [2] (31 Week), 521.8 ± 28.1 ms. For the same molecule, the “All tested areas (ERP, Cogstate, MMSE, ADCS-ADL) vs starting baseline” value in assay [2] (5 weeks, daily 10 mg-50 mg, FIG. 9) is “improvement”.
